According to ChEMBL document CHEMBL4825739, “Cannabinoid Receptor Agonists for the Potential Treatment of Pain, Neurological Disorders, Fibrotic Diseases, Obesity, and Many More” (ACS Med Chem Lett, 2021):

Tests used:
Assay type in all cases: functional, cell-based
Cannabinoid receptor 1 [1] = biological target: T1, Cannabinoid receptor 1 (Homo sapiens, UniProt P21554); test: Agonist activity at human CB1 receptor expressed in CHO-K1 cells assessed as […] incubated for 20 mins measured after 60 mins addition of cAMP detect reagent by HTRF analysis
T1 sequence (P21554 whole entry): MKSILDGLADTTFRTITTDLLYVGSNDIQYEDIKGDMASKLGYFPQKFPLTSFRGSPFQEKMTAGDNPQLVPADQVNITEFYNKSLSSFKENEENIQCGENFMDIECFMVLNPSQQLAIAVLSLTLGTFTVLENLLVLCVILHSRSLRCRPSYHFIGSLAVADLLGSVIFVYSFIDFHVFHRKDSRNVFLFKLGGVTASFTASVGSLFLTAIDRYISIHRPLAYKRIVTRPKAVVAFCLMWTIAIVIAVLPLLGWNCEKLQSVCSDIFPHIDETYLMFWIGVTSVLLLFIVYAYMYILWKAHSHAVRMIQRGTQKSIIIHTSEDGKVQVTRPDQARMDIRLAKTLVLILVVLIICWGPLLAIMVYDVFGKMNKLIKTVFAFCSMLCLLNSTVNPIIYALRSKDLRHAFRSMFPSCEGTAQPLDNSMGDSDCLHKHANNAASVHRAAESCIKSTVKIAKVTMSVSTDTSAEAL

Cannabinoid receptor 2 [2] = biological target: T2, Cannabinoid receptor 2 (Homo sapiens, UniProt P34972); test: Agonist activity at human CB2 receptor expressed in CHO-K1 cells assessed as […] incubated for 20 mins measured after 60 mins addition of cAMP detect reagent by HTRF analysis
T2 sequence (P34972 whole entry): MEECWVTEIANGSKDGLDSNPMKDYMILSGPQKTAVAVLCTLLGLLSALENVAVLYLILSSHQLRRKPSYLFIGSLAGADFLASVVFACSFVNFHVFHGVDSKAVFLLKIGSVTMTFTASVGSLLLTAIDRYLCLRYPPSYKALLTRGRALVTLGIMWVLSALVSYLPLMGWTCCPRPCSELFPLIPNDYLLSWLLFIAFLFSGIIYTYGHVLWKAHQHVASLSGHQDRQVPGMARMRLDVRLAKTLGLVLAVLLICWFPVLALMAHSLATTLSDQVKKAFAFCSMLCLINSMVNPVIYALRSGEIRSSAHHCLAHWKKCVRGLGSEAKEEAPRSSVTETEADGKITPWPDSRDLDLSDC

Cannabinoid receptor 1 [3] = biological target: T1, Cannabinoid receptor 1; test: Agonist activity at human CB1 receptor expressed in CHO-K1 cells assessed as maximum efficacy incubated for 20 mins measured after 60 mins addition of cAMP detect reagent by HTRF analysis relative to control; conditions: filed as agonist
Cannabinoid receptor 2 [4] = biological target: T2, Cannabinoid receptor 2; test: Agonist activity at human CB2 receptor expressed in CHO-K1 cells assessed as maximum efficacy incubated for 20 mins measured after 60 mins addition of cAMP detect reagent by HTRF analysis relative to control; conditions: filed as agonist, time 80.0 min

| Compound | EC50 (Cannabinoid receptor 1 [1]) [nM] | EC50 (Cannabinoid receptor 2 [2]) [nM] | Emax (Cannabinoid receptor 1 [3]) [%] | Emax (Cannabinoid receptor 2 [4]) [%] |
| --- | --- | --- | --- | --- |
| O=C(NC12CC(C1)C2)c1nn(-c2c[n+]([O-])ccn2)c2c1CC1CCC2O1 (stereo not given) | 0.05 | 1780 | 100 | 91 |
| CC(C)(C)[C@@H](CO)NC(=O)c1nn(-c2cnccn2)c2c1C[C@H]1CCC2O1 (single isomer, unassigned) | 0.09 | 422 | 100 | 111 |
| CC(C)(C)c1nnc(-c2nn(-c3c[n+]([O-])ccn3)c3c2CC2CCC3O2)s1 (stereo not given) | 0.06 | 130 | 99 | 94.9 |
| CC(C)(C)NC(=O)c1c2c(nn1-c1c[n+]([O-])ccn1)CC1CCC2O1 (stereo not given) | 2670 | – | 80.3 | < 50 |
| CC(C)(C)[C@@H](CO)NC(=O)c1nn(-c2cnccn2)c2c1C[C@@H]1CC[C@H]2O1 | 0.56 | – | 100 | < 50 |
| CCC(C)(C)c1noc(-c2nn(-c3cnccn3)c3c2CC2CCC3O2)n1 (stereo not given) | 0.04 | – | 99.8 | < 50 |
| O=C(NC12CC3CC(CC1C3)C2)c1nn(-c2ccc(F)cc2F)c2c1CC1CCC2O1 (stereo not given) | 0.08 | 0.7 | 99.1 | 98 |
| CC(C)(C)NC(=O)c1c2c(nn1-c1ccc(F)cc1F)C1CCC(C2)O1 (stereo not given) | 2980 | – | 72.8 | < 50 |
| O=C(NC12CCC(CC1)CC2)c1nn(-c2c[n+]([O-])ccn2)c2c1CC1CCC2O1 (stereo not given) | 0.02 | 48.5 | 99.7 | 96.5 |
| CC(C)(C)NC(=O)c1c2c(nn1-c1c[n+]([O-])ccn1)C1CCC(C2)O1 (stereo not given) | 7970 | – | 66.3 | < 50 |
| CC(C)(C)NC(=O)c1c2c(nn1-c1cnccn1)CC1CCC2O1 (stereo not given) | 1650 | – | 85.8 | < 50 |
| O=C(NC1(C(F)(F)F)CCC1)c1nn(-c2cnccn2)c2c1CC1CCC2O1 (stereo not given) | 0.04 | 571 | 100 | 90.3 |
| O=C(NC12CC3CC(CC1C3)C2)c1nn(-c2cnccn2)c2c1CC1CCC2O1 (stereo not given) | 0.02 | 16.6 | 100 | 111 |
| CC(C)(C)NC(=O)c1nn(-c2ccc(F)cc2F)c2c1CC1CCC2O1 (stereo not given) | 1.2 | 108 | 95.6 | 99 |
